Reference: patent US10500166B2, “Methods for the treatment of erectile dysfunction using fispemifene” (QUATRX PHARMACEUTICALS, priority 2007, dated 2019)

Assays:
Type in all cases: in vivo, human
[1] = system: FSH; assay: Phase I repeated dose study 101-50202: serum FSH
Description: (§1) Fispemifene has been studied in two phase I studies in humans—in a single dose and a repeated dose study. Effect of fispemifene on hormone levels was one main focus of the repeated dose study. The phase I repeated dose study (number 101-50202) was a randomized, double-blind, placebo-controlled 28-day dose-escalation study performed in 31 healthy, elderly men, aged 50-68 years. The main objective of the study was to investigate the tolerability, safety and pharmacokinetics of fispemifene after repeated oral doses, but the study focused also on the effects of fispemifene on serum free and total testosterone, estradiol, and other relevant hormones. The fispemifene doses 10, 30, 100 and 300 mg per day and placebo were administered once every morning as capsules containing 10 mg or 100 mg of fispemifene, or placebo.
(§2) The variables for safety and tolerability were adverse events, vital signs, 12-lead ECG, clinical laboratory evaluations, physical examination, ultrasound examinations (mammary glands) and inhibin B. For pharmacokinetics, the concentrations of fispemifene and its metabolite(s) were to be evaluated. For pharmacodynamics, serum concentrations of FSH, LH, estradiol, testosterone, SHBG, prolactin, aldosterone, cortisol and TSH before and during treatment were measured and compared with the concentrations in the placebo-group.

[2] = system: LH; assay: Phase I repeated dose study 101-50202: serum LH
Description: as §1, §2

[3] = system: DHT (dihydrotestosterone); assay: Example 3 study in hypogonadal men: serum dihydrotestosterone (ITT); conditions: for Dihydrotestosterone, Max / Dihydrotestosterone, Mean ± SD / Dihydrotestosterone, Median / Dihydrotestosterone, Min: Baseline (Visit 2);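 as to Dihydrotestosterone, Max: serum DHT concentration in pg/mL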;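 as to Dihydrotestosterone, Mean ± SD: serum DHT concentration in pg/mL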;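 as to Dihydrotestosterone, Median: serum DHT concentration in pg/mL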;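 as to Dihydrotestosterone, Min: serum DHT concentration in pg/mL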
Procedure: A randomized, double-blind, placebo controlled, parallel-group study of once-daily doses of fispemifene (100, 200, and 300 mg/day) given for 4 weeks was conducted in a population of hypogonadal men. Subjects were required to meet all of the following inclusion criteria at screening and prior to randomization to be eligible for the study:
There were 77 subjects total. The number of subjects randomized to the 100 mg fispemifene, 200 mg fispemifene, 300 mg fispemifene, and placebo arms were 21, 21, 19, and 16, respectively.
Subjects were randomly assigned to one of four treatment groups in a 1:1:1:1 ratio: • Treatment A (100 mg): fispemifene 100 mg+placebo+placebo; • Treatment B (200 mg): fispemifene 100 mg+fispemifene 100 mg+placebo; • Treatment C (300 mg): fispemifene 100 mg+fispemifene 100 mg+fispemifene 100 mg; and • Treatment D (Placebo): placebo+placebo+placebo.
Subjects took one dose (three capsules) of study medication once a day at home for 4 weeks. Capsules were to be taken in the morning immediately after breakfast, with the exception of the morning of the Week 4 visit. Capsules were not to be taken on the morning of the Week 4 visit because trough plasma levels of fispemifene were determined by a blood sample taken at this visit. Each subject was randomly assigned to treatment with one of the 3 different dose regimens of fispemifene or placebo vehicle. Each subject received a 4 week supply of study drug.
Blood samples were taken from the subjects within 1 week prior to dosing with study drug to establish baseline values; after 2 and 4 weeks of randomization; and 2 weeks after the last dose of study drug. Serum was prepared from those samples and used to determine the mean % change from baseline in total testosterone, free testosterone, SHBG (sex hormone-binding globulin), DHT (dihydrotestosterone), E2 (estradiol), LH (luteinizing hormone), FSH (follicle stimulating hormone), and inhibin B.
3. Percent change from baseline in SHBG, DHT, E2, LH, FSH, inhibin B, and testosterone/E2 ratio at Weeks 2, 4, and 6.

[4] = Phase I repeated dose study 101-50202: safety and tolerability
Procedure: A suitable dosage is expected to be in a range of about 5 mg/day to about 1500 mg/day. In a phase I repeated dose study, twenty-three healthy men aged 50 to 70 years received daily 10 mg, 30 mg 100 mg and 300 mg dosages of fispemifene for 28 days. […] All other adverse events were single cases. Fispemifene at the 100 and 300 mg/day dose levels increased serum total testosterone levels 32% and 75% respectively. Thus, a preferred dosage range of fispemifene to treat ED is expected to be 10 to 1000 mg/day.
as §1, §2

[5] = during the 28 days of treatment
[6] = 100 mg/day, to Week 6 (2 weeks after discontinuation)
[7] = 200 mg/day, to Week 6 (2 weeks after discontinuation)
[8] = 300 mg/day, to Week 6 (2 weeks after discontinuation)

With `OCCOCCOc1ccc(/C(=C(/CCCl)c2ccccc2)c2ccccc2)cc1` [Fispemifene, (Z)-2-{2-[4-(4-Chloro-1,2-diphenylbut-1-enyl)phenoxy]ethoxy}ethanol] as the molecule, how does the “Serum FSH, Mean” value ([1]; 10 mg/day, Baseline) read?
Its value is 5.42 U/L.

What about the “Serum FSH, Mean” value ([1]; 10 mg/day, Day 8) of the same molecule?
The value was 5.87 U/L.

And the “Serum FSH, Mean” value ([1]; 10 mg/day, Day 15)?
The value was 5.20 U/L.

What about the “Serum FSH, Mean” value ([1]; 10 mg/day, Day 22) of the same molecule?
The value was 6.60 U/L.

And the “Serum FSH, Mean” value ([1]; 10 mg/day, Day 28)?
Its value is 5.66 U/L.

And the “Serum FSH, Mean” value ([1]; 30 mg/day, Baseline)?
The value was 9.14 U/L.

What about the “Serum FSH, Mean” value ([1]; 30 mg/day, Day 8) of the same molecule?
The value was 9.78 U/L.

And the “Serum FSH, Mean” value ([1]; 30 mg/day, Day 15)?
The value was 10.14 U/L.

And the “Serum FSH, Mean” value ([1]; 30 mg/day, Day 22)?
Its value is 10.18 U/L.

What about the “Serum FSH, Mean” value ([1]; 30 mg/day, Day 28) of the same molecule?
Its value is 8.42 U/L.

And the “Serum FSH, Mean” value ([1]; 100 mg/day, Baseline)?
The value was 6.30 U/L.

And the “Serum FSH, Mean” value ([1]; 100 mg/day, Day 8)?
Its value is 7.68 U/L.

What about the “Serum FSH, Mean” value ([1]; 100 mg/day, Day 15) of the same molecule?
The value was 8.10 U/L.

And the “Serum FSH, Mean” value ([1]; 100 mg/day, Day 22)?
The value was 8.20 U/L.

And the “Serum FSH, Mean” value ([1]; 100 mg/day, Day 28)?
Its value is 7.73 U/L.

What about the “Serum FSH, Mean” value ([1]; 300 mg/day, Baseline) of the same molecule?
Its value is 6.80 U/L.

And the “Serum FSH, Mean” value ([1]; 300 mg/day, Day 8)?
The value was 8.80 U/L.

What about the “Serum FSH, Mean” value ([1]; 300 mg/day, Day 15) of the same molecule?
Its value is 8.73 U/L.

And the “Serum FSH, Mean” value ([1]; 300 mg/day, Day 22)?
The value was 8.85 U/L.

And the “Serum FSH, Mean” value ([1]; 300 mg/day, Day 28)?
Its value is 7.57 U/L.

And the “effect on serum concentration of FSH” value [1, 5]?
Its value is “increased”.

What about the “Serum LH, Mean” value ([2]; 10 mg/day, Baseline) of the same molecule?
Its value is 3.47 U/L.

What about the “Serum LH, Mean” value ([2]; 10 mg/day, Day 8) of the same molecule?
Its value is 3.12 U/L.

And the “Serum LH, Mean” value ([2]; 10 mg/day, Day 15)?
The value was 2.87 U/L.

And the “Serum LH, Mean” value ([2]; 10 mg/day, Day 22)?
Its value is 3.56 U/L.

And the “Serum LH, Mean” value ([2]; 10 mg/day, Day 28)?
Its value is 3.02 U/L.

What about the “Serum LH, Mean” value ([2]; 30 mg/day, Baseline) of the same molecule?
Its value is 3.58 U/L.

What about the “Serum LH, Mean” value ([2]; 30 mg/day, Day 8) of the same molecule?
Its value is 4.26 U/L.

And the “Serum LH, Mean” value ([2]; 30 mg/day, Day 15)?
The value was 5.02 U/L.

And the “Serum LH, Mean” value ([2]; 30 mg/day, Day 22)?
The value was 4.32 U/L.

And the “Serum LH, Mean” value ([2]; 30 mg/day, Day 28)?
The value was 4.42 U/L.

What about the “Serum LH, Mean” value ([2]; 100 mg/day, Baseline) of the same molecule?
The value was 4.12 U/L.

What about the “Serum LH, Mean” value ([2]; 100 mg/day, Day 8) of the same molecule?
Its value is 5.52 U/L.

And the “Serum LH, Mean” value ([2]; 100 mg/day, Day 15)?
Its value is 6.82 U/L.

And the “Serum LH, Mean” value ([2]; 100 mg/day, Day 22)?
Its value is 7.18 U/L.

And the “Serum LH, Mean” value ([2]; 100 mg/day, Day 28)?
The value was 7.60 U/L.

And the “Serum LH, Mean” value ([2]; 300 mg/day, Baseline)?
The value was 4.58 U/L.

What about the “Serum LH, Mean” value ([2]; 300 mg/day, Day 8) of the same molecule?
The value was 6.80 U/L.

What about the “Serum LH, Mean” value ([2]; 300 mg/day, Day 15) of the same molecule?
The value was 6.75 U/L.

And the “Serum LH, Mean” value ([2]; 300 mg/day, Day 22)?
The value was 7.77 U/L.

And the “Serum LH, Mean” value ([2]; 300 mg/day, Day 28)?
Its value is 6.70 U/L.

And the “effect on serum concentration of LH” value [2, 5]?
Its value is “increased”.

And the “Dihydrotestosterone, Max” value ([3]; 100 mg/day)?
The value was 385.0 pg/mL.

What about the “Dihydrotestosterone, Mean ± SD” value ([3]; 100 mg/day) of the same molecule?
The value was 177.5 ± 88.58 pg/mL.

And the “Dihydrotestosterone, Median” value ([3]; 100 mg/day)?
The value was 180.0 pg/mL.

What about the “Dihydrotestosterone, Min” value ([3]; 100 mg/day) of the same molecule?
Its value is 50.0 pg/mL.

And the “Dihydrotestosterone, % Change from Baseline, Max” value ([3]; 100 mg/day, to Week 2)?
The value was 109%.

And the “Dihydrotestosterone, % Change from Baseline, Median” value ([3]; 100 mg/day, to Week 2)?
Its value is 42%.

And the “Dihydrotestosterone, % Change from Baseline, Min” value ([3]; 100 mg/day, to Week 2)?
The value was 0%.

And the “Dihydrotestosterone, % Change from Baseline, Max” value ([3]; 100 mg/day, to Week 4)?
Its value is 98%.

And the “Dihydrotestosterone, % Change from Baseline, Median” value ([3]; 100 mg/day, to Week 4)?
Its value is 33%.

And the “Dihydrotestosterone, % Change from Baseline, Max” value [3, 6]?
Its value is 64%.

And the “Dihydrotestosterone, % Change from Baseline, Median” value [3, 6]?
The value was 19%.

And the “Dihydrotestosterone, Max” value ([3]; 200 mg/day)?
The value was 398.0 pg/mL.

What about the “Dihydrotestosterone, Mean ± SD” value ([3]; 200 mg/day) of the same molecule?
The value was 185.2 ± 95.37 pg/mL.

And the “Dihydrotestosterone, Median” value ([3]; 200 mg/day)?
Its value is 168.0 pg/mL.

And the “Dihydrotestosterone, Min” value ([3]; 200 mg/day)?
Its value is 67.0 pg/mL.

And the “Dihydrotestosterone, % Change from Baseline, Max” value ([3]; 200 mg/day, to Week 2)?
The value was 128%.

And the “Dihydrotestosterone, % Change from Baseline, Median” value ([3]; 200 mg/day, to Week 2)?
Its value is 50%.

What about the “Dihydrotestosterone, % Change from Baseline, Max” value ([3]; 200 mg/day, to Week 4) of the same molecule?
The value was 162%.

And the “Dihydrotestosterone, % Change from Baseline, Median” value ([3]; 200 mg/day, to Week 4)?
The value was 61%.

And the “Dihydrotestosterone, % Change from Baseline, Max” value [3, 7]?
The value was 78%.

And the “Dihydrotestosterone, % Change from Baseline, Median” value [3, 7]?
Its value is 11%.

What about the “Dihydrotestosterone, Max” value ([3]; 300 mg/day) of the same molecule?
Its value is 294.0 pg/mL.

And the “Dihydrotestosterone, Mean ± SD” value ([3]; 300 mg/day)?
The value was 171.6 ± 76.42 pg/mL.

And the “Dihydrotestosterone, Median” value ([3]; 300 mg/day)?
The value was 179.0 pg/mL.

And the “Dihydrotestosterone, Min” value ([3]; 300 mg/day)?
Its value is 50.0 pg/mL.

And the “Dihydrotestosterone, % Change from Baseline, Max” value ([3]; 300 mg/day, to Week 2)?
The value was 162%.

And the “Dihydrotestosterone, % Change from Baseline, Median” value ([3]; 300 mg/day, to Week 2)?
The value was 65%.

What about the “Dihydrotestosterone, % Change from Baseline, Min” value ([3]; 300 mg/day, to Week 2) of the same molecule?
The value was 0%.

And the “Dihydrotestosterone, % Change from Baseline, Max” value ([3]; 300 mg/day, to Week 4)?
The value was 163%.

And the “Dihydrotestosterone, % Change from Baseline, Median” value ([3]; 300 mg/day, to Week 4)?
Its value is 73%.

What about the “Dihydrotestosterone, % Change from Baseline, Min” value ([3]; 300 mg/day, to Week 4) of the same molecule?
Its value is 0%.

And the “Dihydrotestosterone, % Change from Baseline, Max” value [3, 8]?
The value was 98%.

What about the “Dihydrotestosterone, % Change from Baseline, Median” value [3, 8] of the same molecule?
The value was 19%.

What about the “adverse events reported more than once” value ([4]; 10, 30, 100 and 300 mg daily for 28 days) of the same molecule?
Its value is “upper respiratory tract infection, nausea and abdominal pain”.

And the tolerability ([4]; 10, 30, 100 and 300 mg daily for 28 days, all dose levels)?
Its tolerability is “well tolerated”.

What about the safety concerns ([4]; any dose (10-300 mg/day)) of the same molecule?
The safety concerns was “no safety concerns”.
